Data reported in PubChem BioAssay (NCI).
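Cultured in 96-well plates, cells were exposed to test compound for 48 hours across five concentrations. Definition used: TGI = concentration required for complete inhibition of growth.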

What was measured:
Experiment in all cases: NCI tumour cell line growth inhibition, 48 h
M14 melanoma = system: M14 melanoma
DMS 273 small cell lung = system: DMS 273 small cell lung
LXFL 529 NSCLC = system: LXFL 529 NSCLC
SN12K1 renal = system: SN12K1 renal
P388 leukemia = system: P388 leukemia
P388/ADR leukemia = system: P388/ADR leukemia
MDA-N = system: MDA-N
SR leukemia = system: SR leukemia
786-0 renal = system: 786-0 renal
PC-3 prostate = system: PC-3 prostate
BT-549 breast = system: BT-549 breast
RXF-631 renal = system: RXF-631 renal

SMILES | TGI (M14 melanoma) | TGI (DMS 273 small cell lung) | TGI (LXFL 529 NSCLC) | TGI (SN12K1 renal) | TGI (P388 leukemia) | TGI (P388/ADR leukemia) | TGI (MDA-N) | TGI (SR leukemia) | TGI (786-0 renal) | TGI (PC-3 prostate) | TGI (BT-549 breast) | TGI (RXF-631 renal)
CCOc1ccc(C2=C(Cl)c3cc(OC)c(OC)cc3C2Cl)cc1 (stereo unspecified) | > 100 µM | > 100 µM | > 100 µM | – | – | – | – | – | – | – | – | –
Nc1ccc2cc(S(=O)(=O)O)cc(O)c2c1N=Nc1ccc(NC(=O)Nc2ccc(N=Nc3c(N)ccc4cc(S(=O)(=O)O)cc(O)c34)c(S(=O)(=O)O)c2)cc1S(=O)(=O)O | – | > 100 µM | – | > 100 µM | > 100 µM | > 100 µM | – | – | – | – | – | –
CN(C)CCCc1cccnc1 | > 100 µM | – | – | – | – | – | > 100 µM | > 100 µM | > 100 µM | > 100 µM | > 100 µM | –
COc1ccc2c(C)cc(N/N=C/c3sccc3C)nc2c1 | 24.1 µM | – | – | – | – | – | 27.3 µM | 87.3 µM | – | 31.9 µM | 28.9 µM | –
CC(=O)Nc1ccc(C2=N/C(=C\c3ccc(Cl)c(Cl)c3)C(=O)O2)cc1 | > 100 µM | > 100 µM | > 100 µM | – | – | – | – | > 100 µM | – | – | – | > 100 µM
CC1C(=O)C(C)C(c2cccs2)N(N=O)C1c1cccs1 (stereo unspecified) | – | > 100 µM | – | > 100 µM | > 100 µM | > 100 µM | – | – | – | – | – | –
O=C1ON(Cc2ccccc2)C(c2ccccc2)N1c1ccccc1 (stereo unspecified) | – | > 100 µM | – | > 100 µM | > 100 µM | > 100 µM | – | – | – | – | – | –
c1ccc2c(c1)ccc1ncccc12 | > 100 µM | – | – | – | – | – | – | > 100 µM | > 100 µM | > 100 µM | > 100 µM | –
O=C(N1CCOCC1)C1(c2ccccc2)CCNCC1 | > 100 µM | – | – | – | – | – | > 100 µM | > 100 µM | > 100 µM | > 100 µM | > 100 µM | –
NC(=O)NC(CC(=O)O)C(=O)O (stereo unspecified) | > 100 µM | – | – | – | – | – | > 100 µM | > 100 µM | > 100 µM | > 100 µM | > 100 µM | –
COc1ccc(N2C(=O)C3c4[nH]c5ccccc5c4C4CCCCCCCC4C3C2=O)cc1 (stereo unspecified) | > 10 µM | – | – | – | – | – | > 10 µM | > 10 µM | – | > 10 µM | – | –
CCc1ccc(CCC(=O)O)nc1 | > 100 µM | – | – | – | – | – | > 100 µM | > 100 µM | > 100 µM | > 100 µM | > 100 µM | –
COc1nc(/C=N/NC(N)=S)nc(OC)n1 | > 100 µM | > 100 µM | > 100 µM | – | – | – | – | > 100 µM | > 100 µM | – | – | > 100 µM
COc1cc(C2c3cc4c(cc3OC3(O)COC(=O)C23)OCO4)cc(OC)c1OC (stereo unspecified) | > 100 µM | > 100 µM | > 100 µM | – | – | – | – | 59.1 µM | – | – | – | > 100 µM
COc1cc(C2C(Cl)C(=O)N2NC(=O)c2ccc(NC(C)=O)cc2)cc(Br)c1O (stereo unspecified) | – | – | > 100 µM | – | – | – | – | > 100 µM | – | – | – | –
